{"source": "patent US12338484B2", "about": "“FRET biosensor for detecting and reporting NAD+/NADH ratio changes” (Sartorius BioAnalytical Instruments, Inc., priority 2022, dated 2025)", "format_in_all_cases": "biochemical", "key": {"[1]": {"target": "T1, Thermus aquaticus T-Rex FRET fusion, initial construct #1, mKOk-Rex(78-189)-cpmEGFP(145/146)-Rex(190-211)-Rex(78-211), SEQ ID NO: 161 (Thermus aquaticus, UniProt Q9X2V5, INS189[…])", "T1 construct": "His-tag purified from E. coli (pET28c)", "assay": "FRET response (emission spectra) of purified initial construct #1 in absence or presence of 40 uM NADH", "design": "key: Good response: Constructs with very clear and robust spectra separation; Poor response: those with noticeable but small spectra separation; No response: those having no spectra separation", "description": "(§1) 16 initial FRET constructs (See Table 3) were constructed using expression vector pET28c with a T7 promoter and lac operator and expressed in E. coli. Cells were collected and lysed using a commercially-available lysis buffer. Proteins of interest were isolated from the lysates using Ni-NTA magnetic beads. Eluted proteins were subjected to buffer exchange and final protein concentrating. To test performance of the initial FRET constructs, their emission spectra was recorded on a plate reader in absence or presence of 40 uM NADH. Resulting emission spectra with or without the ligand were normalized and overlaid for each construct. Constructs with very clear and robust spectra separation were labeled as having “good response”, those with noticeable but small spectra separation were labeled as having “poor response”, and finally those having no spectra separation were labeled as having “no response”."}, "[2]": {"target": "T2, Thermus aquaticus T-Rex FRET fusion, initial construct #4, Rex(78-211)-Rex(78-189)-cpmEGFP(145/146)-Rex(190-211)-mKOk, SEQ ID NO: 164 (Thermus aquaticus, UniProt Q9X2V5, INS189[…])", "T2 construct": "His-tag purified from E. coli", "assay": "FRET response (emission spectra) of purified initial construct #4 in absence or presence of 40 uM NADH", "design": "key: Good response: Constructs with very clear and robust spectra separation; Poor response: those with noticeable but small spectra separation; No response: those having no spectra separation", "description": "as §1"}, "[3]": {"target": "T3, Thermus aquaticus T-Rex FRET fusion, initial construct #7, mKOk-Rex(78-211)-Rex(78-189)-cpmEGFP(173/174)-Rex(190-211), SEQ ID NO: 167 (Thermus aquaticus, UniProt Q9X2V5, INS189[…])", "T3 construct": "His-tag purified from E. coli", "assay": "FRET response (emission spectra) of purified initial construct #7 in absence or presence of 40 uM NADH", "design": "key: Good response: Constructs with very clear and robust spectra separation; Poor response: those with noticeable but small spectra separation; No response: those having no spectra separation", "description": "as §1"}, "[4]": {"target": "T4, Thermus aquaticus T-Rex FRET fusion, initial construct #6, Rex(78-189)-cpmEGFP(173/174)-Rex(190-211)-Rex(78-211)-mKOk, SEQ ID NO: 166 (Thermus aquaticus, UniProt Q9X2V5, INS189[…])", "T4 construct": "His-tag purified from E. coli", "assay": "FRET response (emission spectra) of purified initial construct #6 in absence or presence of 40 uM NADH", "design": "key: Good response: Constructs with very clear and robust spectra separation; Poor response: those with noticeable but small spectra separation; No response: those having no spectra separation", "description": "as §1"}, "[5]": {"target": "Thermus aquaticus T-Rex FRET fusion, initial construct #13, mKOk-Rex(A)-mEGFP-Rex(B), SEQ ID NO: 173 (Thermus aquaticus, UniProt Q9X2V5, E116G/F189I/K117M/K204T/K47E/R46D/R58D/S30A/Y98W)", "assay": "FRET response (emission spectra) of purified initial construct #13 in absence or presence of 40 uM NADH", "design": "key: Good response: Constructs with very clear and robust spectra separation; Poor response: those with noticeable but small spectra separation; No response: those having no spectra separation", "description": "as §1"}, "[6]": {"target": "Thermus aquaticus T-Rex FRET biosensor construct #14 (Rex(A)-mEGFP-Rex(B)-mKOk, SEQ ID NO: 174), library variant 4-A2, SEQ ID NO: 19 (Thermus aquaticus, UniProt Q9X2V5, E116G/F189I/K117M/K47E/R46D/R58D/S30A/Y98W)", "assay": "Signal window in bacterial lysates, FRET ratio in presence or absence of 200 uM NADH (Table 2)", "settings": "clone 4-A2, SEQ ID NO: 19", "excerpt": "(§2) In specific embodiments, the fusion protein comprises the amino acid sequence selected from the group consisting of SEQ ID NO: 13-93, 95-154, and 191-193; the sequences are provided in Table 2 and the examples.\n(§3) Protein library DNA was generated following cloning that assembled pieces of DNA that were generated using PCRs with mixtures of primers. DNA was transformed into E. coli, and the first round of protein library expression was done in bacterial colonies on agar plates. The colonies, each expressing different library members, were imaged, and then classified into groups based on their FRET ratio signal. Colonies from different groups were inoculated into 96-deep-well plates for further protein expression in liquid culture. The original construct that was used to generate the library (e.g., construct #14 in Table 2) was also inoculated on the same plates, along with non-expressing bacteria. The latter served as a negative control."}, "[7]": {"target": "Thermus aquaticus T-Rex FRET biosensor construct #14 (Rex(A)-mEGFP-Rex(B)-mKOk, SEQ ID NO: 174), library variant 1-A7, SEQ ID NO: 20 (Thermus aquaticus, UniProt Q9X2V5, E116G/F189I/K117M/K47E/R46D/R58D/S30A/Y98W)", "assay": "Signal window in bacterial lysates, FRET ratio in presence or absence of 200 uM NADH (Table 2)", "settings": "clone 1-A7, SEQ ID NO: 20", "excerpt": "as §2, §3"}, "[8]": {"target": "Thermus aquaticus T-Rex FRET biosensor construct #14 (Rex(A)-mEGFP-Rex(B)-mKOk, SEQ ID NO: 174), library variant 1-F8, SEQ ID NO: 13 (Thermus aquaticus, UniProt Q9X2V5, E116G/F189I/K117M/K47E/R46D/R58D/S30A/Y98W)", "assay": "Signal window in bacterial lysates, FRET ratio in presence or absence of 200 uM NADH (Table 2)", "settings": "clone 1-F8, SEQ ID NO: 13", "excerpt": "as §2, §3"}, "[9]": {"target": "Thermus aquaticus T-Rex FRET biosensor construct #14 (Rex(A)-mEGFP-Rex(B)-mKOk, SEQ ID NO: 174), library variant 4-D10, SEQ ID NO: 17 (Thermus aquaticus, UniProt Q9X2V5, E116G/F189I/K117M/K47E/R46D/R58D/S30A/Y98W)", "assay": "Signal window in bacterial lysates, FRET ratio in presence or absence of 200 uM NADH (Table 2)", "settings": "clone 4-D10, SEQ ID NO: 17", "excerpt": "as §2, §3"}, "[10]": {"target": "Thermus aquaticus T-Rex FRET fusion, initial construct #12, Rex(A)-cpmEGFP(173/174)-Rex(B)-mKOk, SEQ ID NO: 172 (Thermus aquaticus, UniProt Q9X2V5, E116G/F189I/K117M/K204T/K47E/R46D/R58D/S30A/Y98W)", "assay": "FRET response (emission spectra) of purified initial construct #12 in absence or presence of 40 uM NADH", "design": "key: Good response: Constructs with very clear and robust spectra separation; Poor response: those with noticeable but small spectra separation; No response: those having no spectra separation", "description": "as §1"}}}
{"smiles": "NC(=O)C1=CN([C@@H]2O[C@H](COP(=O)(O)OP(=O)(O)OC[C@H]3O[C@@H](n4cnc5c(N)ncnc54)[C@H](O)[C@@H]3O)[C@@H](O)[C@H]2O)C=CC1", "note": "[NADH]", "values": [{"measurement": "FRET response to NADH", "setting": "[1]", "result": "No response"}, {"measurement": "FRET response to NADH", "setting": "[2]", "result": "No response"}, {"measurement": "FRET response to NADH", "setting": "[3]", "result": "No response"}, {"measurement": "FRET response to NADH", "setting": "[4]", "result": "No response"}, {"measurement": "FRET response to NADH", "setting": "[5]", "result": "Poor response"}, {"measurement": "Signal window (ex mode), measured in lysates", "setting": "[6]", "result": 0.32}, {"measurement": "Signal window (ex mode), measured in lysates", "setting": "[7]", "result": 0.31}, {"measurement": "Signal window (ex mode), measured in lysates", "setting": "[8]", "result": 0.55}, {"measurement": "Signal window (ex mode), measured in lysates", "setting": "[9]", "result": 0.34}, {"measurement": "FRET response to NADH", "setting": "[10]", "result": "Good response"}]}
